These results are taken from publication PMC4467461, “Small-molecule activation of SERCA2a SUMOylation for the treatment of heart failure” (Nature Communications, 2015).

In one assay the test system is SERCA2a. Briefly: SERCA2a ATPase activity assay (coupled enzyme) in cardiomyocytes. It counts as cell-based, Sprague–Dawley rats. Here is the method: Figure 1 N106 increases SERCA2a’s cellular activity and SUMOylation in adult cardiomyocytes. In-vitro characterization of activators of SERCA2a SUMOylation. Cell-based screening of small molecules identified one promising compound. Adult ventricular cardiomyocytes were isolated from Sprague–Dawley rats and treated with small molecules on dose-dependent manner for 24 h. DMSO-treated cardiomyocytes were used as a negative control. (a) Chemical structure of SERCA2a SUMOylation activator. N106, N-(4-methoxybenzo[d]thiazol-2-yl)-5-(4-methoxyphenyl)-1,3,4-oxadiazol-2-amine. (b-g) The effects of N106 compound in cardiomyocyte contractility and calcium transient. The dose-dependent effects of N106 compound presented on peak shortening, the time to maximal departure velocity, the time to maximal return velocity, calcium ratio, decay time constant (τ) and the time to 90% baseline (t90) fluorescence in cardiomyocytes were assessed using a video-based edge-detection system (IonOptix Inc.). n=25 cardiomyocytes from each three of hearts per condition. […] The ATPase activity were measured at 25 °C in 50 mM MOPS, 100 mM KCl, 5 mM MgCl2, 1 mM […] at pCa 5.0 by using a coupled enzyme system consisting of pyruvate kinase and lactate dehydrogenase, and monitoring the oxidation of the reduced form of NADH at […]. The enzyme activity was determined by using same set of cardiomyocytes. […]

The test system of assay [1] is mouse heart tissue (sham and TAC). Briefly: Molecular analysis of heart tissue of N106-infused mice (western blot, immunoprecipitation, ATPase activity). The assay is classed as in vivo. The method, then: Protein extracts (20∼50 μg) were obtained from isolated cardiomyocytes, which was lysed in RIPA buffer (R&D Systems Inc., MN, USA) contained protease inhibitors (Complete mini, Roche Diagnostics, IN, USA) and 20 mM NEM (Sigma-Aldrich). For SERCA2a SUMOylation assays, cardiac protein extracts were immunoprecipitated with a SUMO-1 agarose resin (Santa Cruz Biotechnology Inc., CA, USA) for overnight at 4 °C. The resins were washed with cold lysis buffer three times. The immunocomplexes were then resolved by SDS–PAGE and western blot analysis was performed using a SERCA2a-specific antibody. For general western blotting, cardiac proteins (10∼50 μg) were separated on SDS–PAGE gel, transferred to nitrocellulose membrane (Bio-Rad, CA, USA) and blotted with the following primary antibodies: SUMO-1 (1:1,000, R&D Systems Inc.), Ubc9 (1:1,000, R&D Systems Inc.), SAE2 (1:1,000, Abcam Inc., MA, USA), SERCA2a (1:3,000, 21st Century Biochemicals, MA, USA), PLN (1:5,000, Badrilla Ltd., UK), PLN phosphorylation at serine-16 (1:5,000, Badrilla Ltd.), RyR2 (1:5,000, Abcam Inc.), NCX (1:1,000, Novus Biologicals, CO, USA), glyceraldehyde 3-phosphate (1:10,000, Sigma-Aldrich), GATA4 (1:1,000, Millipore, NY, USA) and Sp1 (1:500, Millipore). Secondary antibodies anti-mouse IgG-HRP (1:10,000) and anti-rabbit IgG-HRP (1:10,000) were purchased from Sigma-Aldrich. The immunoreactive bands were visualized by a supersignal chemiluminescence detection reagent (Pierce Biotechnology, IL, USA). Full scans of western blots are presented in Supplementary Fig. 14.
SERCA2a ATPase activity was determined using a coupled enzymes assay including pyruvate kinase/lactate dehydrogenase/NADH-coupled reactions. Microsomes were enriched by differential density centrifugation. The cardiac cells and tissues were homogenized on ice in homogenization buffer (250 mM sucrose (Sigma-Aldrich), 5 mM HEPES pH7.0 (Sigma-Aldrich), 1 mM phenylmethyl sulfonyl fluoride (Sigma-Aldrich), protease inhibitor cocktail (Roche Life Science, IN, USA)). The homogenates were centrifuged at 1,000g for 10 min at 4 °C, then the supernatants were collected and centrifuged at 12,000g for 15 min at 4 °C. The supernatants were transferred to ultracentrifuge tubes and centrifuged for 1 h at 140,000g at 4 °C (Optima XE-100, Beckman Coulter). The pellets were resuspended in homogenization buffer to determine protein concentration and calcium-dependent ATPase activity assay. Protein concentration was measured with a 2-D Quant Kit (GE Healthcare Life Sciences, PA, USA). The ATPase activity were measured at 25 °C in 50 mM MOPS (Boston Bioproducts, MA, USA), 100 mM KCl (Boston Bioproducts), 5 mM MgCl2 (Boston Bioproducts), 1 mM EDTA (Boston Bioproducts) at pCa 5.0 by using a coupled enzyme system consisting of pyruvate kinase and lactate dehydrogenase, and monitoring the oxidation of the reduced form of NADH at […].
Supplementary Figure 9. Molecular analysis in N106 treated mice. (a-d) Representative western blots and protein quantification of select cardiac proteins. Mice heart tissue samples were obtained after external jugular vein infusion with vehicle or 10 mg.kg-1of N106 from sham and TAC mice. The experiments shown are representative of three independent Western blots with […]
(also on this page, place not known: TACSham TACSham TACSham SUMO-1 Conjugates (relative fold) N106Vehicle TACSham Veh RyR2/GAPDH (relative fold)Vehicle N106Vehicle Veh TACSham Veh 0.5 NCX/GAPDH (relative fold) NSNS N106Vehicle N106Vehicle N106Vehicle 200ATPase activity (% of control)Vehicle N106Vehicle TAC PLN/GAPDH (relative fold) P-PLN/PLN (relative fold) MW) […]
similar results. (e) The enzyme activity of SERCA2a was determined by using the same set of heart tissue samples. (f) SUMO-1 conjugate was measured by Western blot analysis with an anti-SUMO-1 antibody. Band intensity was quantified by Image J software. The amount of GAPDH was used as a normalization control. […]
(In western blotting, separated proteins are transferred to a membrane and probed.)

Structures are written as SMILES.

As to `COc1ccc(-c2nnc(Nc3nc4c(OC)cccc4s3)o2)cc1` [Compound N106, N-(4-methoxybenzo[d]thiazol-2-yl)-5-(4-methoxyphenyl)-1,3,4-oxadiazol-2-amine], the “SERCA2a’s ATPase activity, time course” value with SERCA2a (10 μM, 10∼30 min, sustained at 24 h) was “increased”. The “SERCA2a ATPase activity” value with SERCA2a (increasing N106 concentration, 24 h, pCa 5.0) is reported as “increased”. In addition, in assay [1] (10 mg kg^−1), the “GATA4 SUMOylation and its protein levels” value is on record as “no significant effect”; the “protein levels of Sp1” value is reported as “not changed”. For the same molecule, in assay [1] (10 mg kg^−1 infusion), the SERCA2a protein levels entry was “not significantly changed”; the “protein levels and phosphorylation states of phospholamban” value is “Neither protein levels nor phosphorylation states of phospholamban were changed”; the “protein levels of cardiac ryanodine receptor and sodium–calcium exchanger” value is recorded as “not significant changes”; the “whole SUMO-1 conjugates” value is on record as “not significantly changed”. Also, the “SUMOylated specificity protein 1 (Sp1) form” value in assay [1] (TAC heart, 10 mg kg^−1) is “significantly induced”. In addition, in assay [1] (TAC hearts, 10 mg kg^−1), the “SUMOylation of SERCA2a versus vehicle control” value is on record as “significantly increased”. The “SERCA2a’s ATPase activity versus vehicle-treated hearts” value in assay [1] (TAC hearts, 10 mg kg^−1 (P=0.06)) is “somewhat higher”. Moreover, the “SUMOylation of SERCA2a versus vehicle control” value in assay [1] (sham-operated group, 10 mg kg^−1 (P=0.07)) is recorded as “increasing trend”.
